Legend:
Format in all cases: in vivo
[1] = tested on: BAT and marrow adipose tissue; assay: [18F]F-AraG PET imaging after chronic dosing with BRL37344; conditions: mice, 3 days+1 h prior to imaging
intrascapular BAT (iBAT) = assay: [18F]F-AraG and FDG PET imaging of BAT in mice treated with BRL37344, insulin or vehicle
iBAT = assay: [18F]F-AraG PET imaging of iBAT in mice with GBM tumors; conditions: one GBM mouse with highest neuroinflammation
Text: During our studies into the utility of ^18F-AraG in assessing intracranial T cell infiltration in glioblastoma multiforme (GBM) we made the unexpected and surprising discovery that ^18F-AraG can also image and/or assess the activation of adipose tissue (FIG. 2). Adipose, or fat, tissue (AT) was once considered an inert tissue that primarily existed to store lipids, and was not historically recognized as an important organ in the regulation and maintenance of health. With the rise of obesity and more rigorous research, AT is now recognized as a highly complex metabolic organ involved in a host of important physiological functions, including glucose homeostasis and a multitude of endocrine capabilities. […] The study of AT can provide useful insights in developing strategies to combat these highly prevalent metabolic diseases.
[^18F]F-AraG ability to track stimulated adipocytes allowed observation of activated iBAT in mice with bioluminescently-tagged GBM tumors. The activation occurred at different time points and varied in intensity.

## C[C@H](Cc1ccc(OCC(=O)O)cc1)NC[C@H](O)c1cccc(Cl)c1 [BRL37344]
[1]
  effect of chronic dosing on [18F]F-AraG signal (in words): increase in [^18F]F-AraG signal not only in the classical, intrascapular BAT. but also in lumbar spinal cord and proximal tibia

## Nc1nc2c(ncn2[C@@H]2O[C@H](CO)[C@@H](O)[C@@H]2[18F])c(=O)[nH]1 [[^18F]F-AraG, [18F]-F-arabinofuranosyl guanine]
Intrascapular BAT (iBAT); control animals
  [18F]F-AraG uptake in iBAT: 4.11±0.76 % ID/g
Intrascapular BAT (iBAT); insulin-treated mice
  [18F]F-AraG uptake in iBAT: 3.36±0.62 % ID/g
Intrascapular BAT (iBAT); mice, BRL37344 administered one hour prior to imaging
  accumulation of [18F]F-AraG in intrascapular BAT (iBAT): 10.98±1.64 % ID/g
iBAT; OnTx3
  iBAT [18F]F-AraG signal: 14.92 % ID/g
iBAT; PreTx
  iBAT [18F]F-AraG signal: 1.70 % ID/g

Reference: US20250166176A1, “METHODS AND MATERIALS FOR IMAGING ADIPOSE TISSUE” (CellSight Technologies Inc., priority 2022, published 2025)
